# Results as given in PubChem BioAssay (NCI).
#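 Five concentrations, 48 hours, 96-well plates. Abbreviation: GI50, concentration required for 50% inhibition of growth. The concentration for full growth arrest is given as TGI.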
# Tested on: OVCAR-5 ovarian
# Assay: NCI anticancer screen, dose series, 48 h
row,SMILES,TGI [µM]
1,CN1C(=O)c2cccc3cc([N+](=O)[O-])cc(c23)C1=O,> 10
2,Oc1ccccc1C(Sc1nc2ccccc2s1)Sc1nc2ccccc2s1,> 100
3,Cc1cccc(NC(=O)/C(=N\NC(C)(C)C)C2NC(=S)NC2=O)c1C (configuration not stated),> 100
4,c1ccc(CNn2nnc3ccccc32)cc1,> 100

# Tested on: RPMI-8226 leukemia
# Assay: NCI anticancer screen, dose series, 48 h
SMILES,TGI [µM],GI50 [µM]
COc1cc(C(C)O)c[n+](CCc2c[nH]c3ccccc23)c1 (configuration not stated),> 100,
CC1(C)SCc2nc3ncccc3n21,> 100,
Cc1cn(C2CC(O)C(CO)O2)c(=O)n2nnnc12 (configuration not stated),> 100,
COc1ccc(C(=O)C(C(=O)CCC(=O)Nc2cccc(Cl)c2)c2ccc(OC)cc2)cc1 (configuration not stated),> 100,
Cc1cc(C(=O)Nc2ncc(Cc3cccc(C(F)(F)F)c3)s2)c2ccccc2n1,> 100,2.41
Cc1ccc(C2=C(c3ccccc3)C(Br)(c3ccc(C)cc3)C(c3ccccc3)=C2c2ccc(C)cc2)cc1,> 100,
O=C(N/N=C/c1ccc(Cl)cc1)c1ccc(C(F)(F)F)nc1Nc1cccc(C(F)(F)F)c1,,1.53
COc1cc2ncnc(Nc3ccc(C)c(O)c3)c2cc1OC,> 25,> 25
N#CCN1C(=O)c2cccc3cc([N+](=O)[O-])cc(c23)C1=O,> 100,
O=C1CCN2C(=O)CCN12,> 100,
Cc1cc(S(=O)(=O)Nc2nnc(-c3ccccc3)c(-c3ccccc3)n2)c(SCC(N)=O)cc1Cl,86.6,30.9
COc1ccc(/C=C/c2ccnc3ccccc23)c(OC)c1,> 10,
Clc1nc(Cl)c(Cl)c(-c2ccccc2)n1,> 100,
CC(=O)CSCc1ccccn1,36.8,
COc1ccccc1CNCCCN1C(=O)c2ccc3c4c(ccc(c24)C1=O)C(=O)N(CCCOCCCCOCCCN)C3=O,5.21,1.72
COc1cc(/C=C/c2cc(/C=C/c3ccc(O)c(OC)c3)n(C(=O)Nc3ccc(F)c(Cl)c3)n2)ccc1O,1.73,0.365
Clc1ccc(C2=Nn3c(COc4ccccc4Cl)nnc3SC2)c(Cl)c1,> 100,44.7
COc1cc2nc3cc([N+](=O)[O-])ccc3c(NCCCNCCO)c2cc1OC,4.34,0.567
CC1(C)C(=O)N(CCCCCCN2C(=O)C(C)(C)c3ccccc32)c2ccccc21,45.1,
CCOC(=O)c1c(C)n(Cc2ccc(Cl)cc2Cl)c2c1c(CN(C)C)c(O)c1[nH]cnc12,22.1,7.95
C[C@@]12CC=C3c4nc(Nc5cccc(O)c5)sc4CC[C@]3(C)[C@H]1CC[C@]1(C)C(=O)CC[C@@H]21,4.52,0.669
CN1C(=O)c2cccc3cc([N+](=O)[O-])cc(c23)C1=O,> 10,
Oc1ccccc1C(Sc1nc2ccccc2s1)Sc1nc2ccccc2s1,> 100,
Cc1cccc(NC(=O)/C(=N\NC(C)(C)C)C2NC(=S)NC2=O)c1C (configuration not stated),> 100,
c1ccc(CNn2nnc3ccccc32)cc1,> 100,

# Tested on: RXF 393 renal
# Assay: NCI anticancer screen, dose series, 48 h
SMILES,TGI [µM],GI50 [µM]
COc1cc(C(C)O)c[n+](CCc2c[nH]c3ccccc23)c1 (configuration not stated),> 100,
CC1(C)SCc2nc3ncccc3n21,> 100,
COc1cc2ncnc(Nc3ccc(C)c(O)c3)c2cc1OC,19.2,5.48
N#CCN1C(=O)c2cccc3cc([N+](=O)[O-])cc(c23)C1=O,> 100,
COc1ccc(/C=C/c2ccnc3ccccc23)c(OC)c1,> 10,
Clc1nc(Cl)c(Cl)c(-c2ccccc2)n1,26.6,
CC1CC[C@]2(C(=O)O)CCC3(C)C(=CC(=O)C4[C@@]5(C)CCC(=O)C(C)(C)C5CC[C@]43C)[C@@H]2[C@H]1C (some centres not stated),49.4,
CC(=O)CSCc1ccccn1,> 100,
COc1ccccc1CNCCCN1C(=O)c2ccc3c4c(ccc(c24)C1=O)C(=O)N(CCCOCCCCOCCCN)C3=O,2.2,0.771
CC(C)(C)c1ccc2c(c1)S(=O)(=O)Nc1ccccc1NS(=O)(=O)c1cc(C(C)(C)C)ccc1OCCOCCOCCO2,> 100,
COc1cc(/C=C/c2cc(/C=C/c3ccc(O)c(OC)c3)n(C(=O)Nc3ccc(F)c(Cl)c3)n2)ccc1O,0.828,0.249
CC(=O)[O-].CCN(CC)c1ccc(C=NCCN=Cc2ccc(N(CC)CC)cc2[O-])c([O-])c1.[Mn+3],46.5,20.5
Clc1ccc(C2=Nn3c(COc4ccccc4Cl)nnc3SC2)c(Cl)c1,> 100,28.6
COc1cc2nc3cc([N+](=O)[O-])ccc3c(NCCCNCCO)c2cc1OC,0.473,0.186
CCOC(=O)c1c(C)n(Cc2ccc(Cl)cc2Cl)c2c1c(CN(C)C)c(O)c1[nH]cnc12,28.7,14.7
C[C@@]12CC=C3c4nc(Nc5cccc(O)c5)sc4CC[C@]3(C)[C@H]1CC[C@]1(C)C(=O)CC[C@@H]21,2.35,0.666
Oc1ccccc1C(Sc1nc2ccccc2s1)Sc1nc2ccccc2s1,> 100,
c1ccc(CNn2nnc3ccccc32)cc1,> 100,

# Tested on: SF-268 CNS
# Assay: NCI anticancer screen, dose series, 48 h
SMILES,TGI [µM],GI50 [µM]
COc1cc(C(C)O)c[n+](CCc2c[nH]c3ccccc23)c1 (configuration not stated),> 100,
CC1(C)SCc2nc3ncccc3n21,> 100,
Cc1cn(C2CC(O)C(CO)O2)c(=O)n2nnnc12 (configuration not stated),> 100,
COc1ccc(C(=O)C(C(=O)CCC(=O)Nc2cccc(Cl)c2)c2ccc(OC)cc2)cc1 (configuration not stated),> 100,
Cc1cc(C(=O)Nc2ncc(Cc3cccc(C(F)(F)F)c3)s2)c2ccccc2n1,> 100,2.63
Cc1ccc(C2=C(c3ccccc3)C(Br)(c3ccc(C)cc3)C(c3ccccc3)=C2c2ccc(C)cc2)cc1,> 100,
O=C(N/N=C/c1ccc(Cl)cc1)c1ccc(C(F)(F)F)nc1Nc1cccc(C(F)(F)F)c1,8.29,1.14
COc1cc2ncnc(Nc3ccc(C)c(O)c3)c2cc1OC,> 25,> 19.2
N#CCN1C(=O)c2cccc3cc([N+](=O)[O-])cc(c23)C1=O,> 100,
O=C1CCN2C(=O)CCN12,> 100,
Cc1cc(S(=O)(=O)Nc2nnc(-c3ccccc3)c(-c3ccccc3)n2)c(SCC(N)=O)cc1Cl,> 100,37.6
COc1ccc(/C=C/c2ccnc3ccccc23)c(OC)c1,> 10,
Clc1nc(Cl)c(Cl)c(-c2ccccc2)n1,61.6,
CC1CC[C@]2(C(=O)O)CCC3(C)C(=CC(=O)C4[C@@]5(C)CCC(=O)C(C)(C)C5CC[C@]43C)[C@@H]2[C@H]1C (some centres not stated),> 100,
CC(=O)CSCc1ccccn1,> 100,
COc1ccccc1CNCCCN1C(=O)c2ccc3c4c(ccc(c24)C1=O)C(=O)N(CCCOCCCCOCCCN)C3=O,3.63,1.42
CC(C)(C)c1ccc2c(c1)S(=O)(=O)Nc1ccccc1NS(=O)(=O)c1cc(C(C)(C)C)ccc1OCCOCCOCCO2,> 100,
CC(=O)[O-].CCN(CC)c1ccc(C=NCCN=Cc2ccc(N(CC)CC)cc2[O-])c([O-])c1.[Mn+3],52.7,23.8
Clc1ccc(C2=Nn3c(COc4ccccc4Cl)nnc3SC2)c(Cl)c1,> 100,31.8
COc1cc2nc3cc([N+](=O)[O-])ccc3c(NCCCNCCO)c2cc1OC,0.478,0.126
CC1(C)C(=O)N(CCCCCCN2C(=O)C(C)(C)c3ccccc32)c2ccccc21,> 100,
CCOC(=O)c1c(C)n(Cc2ccc(Cl)cc2Cl)c2c1c(CN(C)C)c(O)c1[nH]cnc12,28.3,15.1
C[C@@]12CC=C3c4nc(Nc5cccc(O)c5)sc4CC[C@]3(C)[C@H]1CC[C@]1(C)C(=O)CC[C@@H]21,7.12,2.1
CN1C(=O)c2cccc3cc([N+](=O)[O-])cc(c23)C1=O,> 10,
Oc1ccccc1C(Sc1nc2ccccc2s1)Sc1nc2ccccc2s1,> 100,
c1ccc(CNn2nnc3ccccc32)cc1,> 100,

# Tested on: SF-539 CNS
# Assay: NCI anticancer screen, dose series, 48 h
SMILES,TGI [µM],GI50 [µM]
COc1cc(C(C)O)c[n+](CCc2c[nH]c3ccccc23)c1 (configuration not stated),> 100,
CC1(C)SCc2nc3ncccc3n21,> 100,
Cc1cn(C2CC(O)C(CO)O2)c(=O)n2nnnc12 (configuration not stated),> 100,
COc1ccc(C(=O)C(C(=O)CCC(=O)Nc2cccc(Cl)c2)c2ccc(OC)cc2)cc1 (configuration not stated),> 100,
Cc1ccc(C2=C(c3ccccc3)C(Br)(c3ccc(C)cc3)C(c3ccccc3)=C2c2ccc(C)cc2)cc1,> 100,
O=C(N/N=C/c1ccc(Cl)cc1)c1ccc(C(F)(F)F)nc1Nc1cccc(C(F)(F)F)c1,6.69,2.11
COc1cc2ncnc(Nc3ccc(C)c(O)c3)c2cc1OC,> 23,5.98
N#CCN1C(=O)c2cccc3cc([N+](=O)[O-])cc(c23)C1=O,> 100,
Cc1cc(S(=O)(=O)Nc2nnc(-c3ccccc3)c(-c3ccccc3)n2)c(SCC(N)=O)cc1Cl,30.1,0.671
COc1ccc(/C=C/c2ccnc3ccccc23)c(OC)c1,> 10,
Clc1nc(Cl)c(Cl)c(-c2ccccc2)n1,31.5,
CC1CC[C@]2(C(=O)O)CCC3(C)C(=CC(=O)C4[C@@]5(C)CCC(=O)C(C)(C)C5CC[C@]43C)[C@@H]2[C@H]1C (some centres not stated),44.1,
CC(=O)CSCc1ccccn1,67.9,
COc1ccccc1CNCCCN1C(=O)c2ccc3c4c(ccc(c24)C1=O)C(=O)N(CCCOCCCCOCCCN)C3=O,3.3,1.68
CC(C)(C)c1ccc2c(c1)S(=O)(=O)Nc1ccccc1NS(=O)(=O)c1cc(C(C)(C)C)ccc1OCCOCCOCCO2,> 100,
CC(=O)[O-].CCN(CC)c1ccc(C=NCCN=Cc2ccc(N(CC)CC)cc2[O-])c([O-])c1.[Mn+3],37.4,20.9
COc1cc2nc3cc([N+](=O)[O-])ccc3c(NCCCNCCO)c2cc1OC,0.478,0.191
CC1(C)C(=O)N(CCCCCCN2C(=O)C(C)(C)c3ccccc32)c2ccccc21,> 100,
CCOC(=O)c1c(C)n(Cc2ccc(Cl)cc2Cl)c2c1c(CN(C)C)c(O)c1[nH]cnc12,36.9,20.2
C[C@@]12CC=C3c4nc(Nc5cccc(O)c5)sc4CC[C@]3(C)[C@H]1CC[C@]1(C)C(=O)CC[C@@H]21,1.52,0.387
CN1C(=O)c2cccc3cc([N+](=O)[O-])cc(c23)C1=O,> 10,
Cc1cccc(NC(=O)/C(=N\NC(C)(C)C)C2NC(=S)NC2=O)c1C (configuration not stated),> 100,

# Tested on: UACC-62 melanoma
# Assay: NCI anticancer screen, dose series, 48 h
SMILES,TGI [µM],GI50 [µM]
COc1cc(C(C)O)c[n+](CCc2c[nH]c3ccccc23)c1 (configuration not stated),> 100,
CC1(C)SCc2nc3ncccc3n21,> 100,
Cc1cn(C2CC(O)C(CO)O2)c(=O)n2nnnc12 (configuration not stated),> 100,
COc1ccc(C(=O)C(C(=O)CCC(=O)Nc2cccc(Cl)c2)c2ccc(OC)cc2)cc1 (configuration not stated),> 100,
Cc1ccc(C2=C(c3ccccc3)C(Br)(c3ccc(C)cc3)C(c3ccccc3)=C2c2ccc(C)cc2)cc1,> 100,
O=C(N/N=C/c1ccc(Cl)cc1)c1ccc(C(F)(F)F)nc1Nc1cccc(C(F)(F)F)c1,6.15,2.39
COc1cc2ncnc(Nc3ccc(C)c(O)c3)c2cc1OC,> 25,> 25
N#CCN1C(=O)c2cccc3cc([N+](=O)[O-])cc(c23)C1=O,60.5,
O=C1CCN2C(=O)CCN12,> 100,
Cc1cc(S(=O)(=O)Nc2nnc(-c3ccccc3)c(-c3ccccc3)n2)c(SCC(N)=O)cc1Cl,56.2,24.6
COc1ccc(/C=C/c2ccnc3ccccc23)c(OC)c1,> 10,
CC1CC[C@]2(C(=O)O)CCC3(C)C(=CC(=O)C4[C@@]5(C)CCC(=O)C(C)(C)C5CC[C@]43C)[C@@H]2[C@H]1C (some centres not stated),30.6,
CC(=O)CSCc1ccccn1,> 100,
COc1ccccc1CNCCCN1C(=O)c2ccc3c4c(ccc(c24)C1=O)C(=O)N(CCCOCCCCOCCCN)C3=O,1.96,0.645
CC(C)(C)c1ccc2c(c1)S(=O)(=O)Nc1ccccc1NS(=O)(=O)c1cc(C(C)(C)C)ccc1OCCOCCOCCO2,> 100,
COc1cc(/C=C/c2cc(/C=C/c3ccc(O)c(OC)c3)n(C(=O)Nc3ccc(F)c(Cl)c3)n2)ccc1O,1.99,0.452
CC(=O)[O-].CCN(CC)c1ccc(C=NCCN=Cc2ccc(N(CC)CC)cc2[O-])c([O-])c1.[Mn+3],57.5,25.7
Clc1ccc(C2=Nn3c(COc4ccccc4Cl)nnc3SC2)c(Cl)c1,35.5,15.1
CC1(C)C(=O)N(CCCCCCN2C(=O)C(C)(C)c3ccccc32)c2ccccc21,79.8,
C[C@@]12CC=C3c4nc(Nc5cccc(O)c5)sc4CC[C@]3(C)[C@H]1CC[C@]1(C)C(=O)CC[C@@H]21,5.25,2.08
CN1C(=O)c2cccc3cc([N+](=O)[O-])cc(c23)C1=O,> 10,
Oc1ccccc1C(Sc1nc2ccccc2s1)Sc1nc2ccccc2s1,> 100,
Cc1cccc(NC(=O)/C(=N\NC(C)(C)C)C2NC(=S)NC2=O)c1C (configuration not stated),> 100,
c1ccc(CNn2nnc3ccccc32)cc1,> 100,
